Tests used:
[1] = test system: MCF7 cell line; conditions: MCF7 after treatment with RA; versus all other genes; cited from earlier work
[2] = rat models of ischemia/reperfusion injury; cited from earlier work
[3] = test system: A549; conditions: A549 after treatment with RA; versus all other genes; cited from earlier work
[4] = test system: washed platelets; assay: Platelet total tyrosine phosphorylation (4G10 immunoblot); format: cell-based, human; conditions: in response to CRPXL, TRAP-6 and U46619; RA-treated platelets
Experimental: The molecular mechanisms involved in the functional impact of RA on platelets was clarified. The RA target FYN is a protein-tyrosine kinase and platelet activation is coordinated by several kinases that phosphorylate adaptors, enzymes, and cytoskeletal proteins downstream of platelet surface receptors. Given this connection, RA may inhibit platelets function by blocking agonist-induced protein tyrosine phosphorylation.
Human blood collection was performed as previously described in accordance with the Declaration of Helsinki and ethics regulations with Institutional Review Board approval from Brigham and Women's Hospital (P001526). […] Citrated whole blood underwent centrifugation with a slow break (177×g, 20 minutes) and the PRP fraction was acquired for subsequent experiments. For washed platelets, PRP was incubated with 1 μM prostaglandin E1 (Sigma, P5515) and immediately underwent centrifugation with a slow break (1000×g, 5 minutes). Platelet-poor plasma was aspirated, and pellets resuspended in platelet resuspension buffer (PRB; 10 mM Hepes, 140 mM NaCl, 3 mM KCl, 0.5 mM MgCl2, 5 mM NaHCO3, 10 mM glucose, pH 7.4).
Washed platelets were pre-treated with RA for 1 hour, followed by agonist stimulation for 10 minutes. Platelets were lysed on ice with RIPA Lysis Buffer System® (Santa Cruz®, sc-24948) and sample supernatants clarified via centrifugation (14,000 rpm, 5 min, 4° C.). […]

[5] = test system: platelets; assay: Platelet aggregation by turbidimetric aggregometry; format: cell-based, human; conditions: PRP pre-treated with RA for 1 hour; collagen 1 μg/mL
Experimental: To validate the predictive power of the developed framework, direct experimental evidence of the predicted mechanistic role of Rosmarinic acid (RA) in VD was sought. […] Therefore, whether RA influenced platelet activation in vitro was evaluated. As platelets can be stimulated through different activation pathways, RA effects can, in principle, occur in any of them. To test these different possibilities, platelets were pretreated with RA and then activated with: 1) glycoprotein VI by collagen or collagen-related peptide (Collagen/CRPXL); 2) protease-activated receptors-1,4 by thrombin receptor activator peptide-6 (TRAP-6); 3) prostanoid thromboxane receptor by the thromboxane A2 analogue (U46619); and 4) P2Y1/12 receptor stimulation by adenosine diphosphate (ADP). […] Platelet aggregation was measured by turbidimetric aggregometry. […] Platelet aggregation was monitored for 6 minutes at 37° C. with a stir speed of 1000 rpm and the maximum extend of aggregation recorded using AGGRO/LINK®8 software. In some cases, dense granule release was simultaneously recorded by supplementing samples with Chrono-Lume® (Chrono-Log®, 395) according to the manufacturer's instructions.

In the case of `O=C(/C=C/c1ccc(O)c(O)c1)O[C@H](Cc1ccc(O)c(O)c1)C(=O)O` [rosmarinic acid], the “perturbation scores for genes directly regulated by NFE2L2” value [1] is given as “higher perturbation scores”, the cardiac function [2] is given as “restore cardiac function” and the “perturbation scores for genes directly regulated by NFE2L2” value [3] is given as “higher perturbation scores”. For the same molecule, the total tyrosine phosphorylation [4] was “dose-dependent reduction” and the collagen-mediated platelet aggregation [5] was “inhibits”.
